In patent publication US20200029564A1, “NOVEL 5-SUBSTITUTED IMIDAZOLYLMETHYLOXIRANE DERIVATIVES” (Bayer CropScience Aktiengesellschaft, priority 2016, published 2020):

Experiments:
Sphaerotheca fuliginea = test: In vivo preventive test on Sphaerotheca fuliginea (powdery mildew on cucurbits); settings: Podosphaera fuliginea, 360 h; 500 ppm of active ingredient; preventive spray on young gherkin plants; evaluated 15 days after inoculation; read-out: efficacy
Description: Example C: In Vivo Preventive Test on Sphaerotheca fuliginea (Powdery Mildew on Cucurbits) [table] The active ingredients are made soluble and homogenized in a mixture of Dimethyl sulfoxide/Acetone/Tween® 80 and then diluted in water to the desired concentration. The young plants of gherkin are treated by spraying the active ingredient prepared as described above. Control plants are treated only with an aqueous solution of Acetone/Dimethyl sulfoxide/Tween® 80. After 24 hours, the plants are contaminated by spraying the leaves with an aqueous suspension of Sphaerotheca fuidiginea spores. The contaminated gherkin plants are incubated for 72 hours at 18° C. and at 100% relative humidity and then for 12 days at 20° C. and at 70-80% relative humidity. The test is evaluated 15 days after the inoculation. 0% means an efficacy which corresponds to that of the control plants while an efficacy of 100% means that no disease is observed.

[1] = LogP by HPLC on reversed phase columns (EEC directive 79/831 Annex V.A8); format: physicochemical; settings: reversed phase HPLC column, method [a]: LC-UV, acidic range, 0.1% formic acid in water and acetonitrile as eluent
Description: [table] If more than one Log P value is available within the same method, all the values are given and separated by “+”. Calibration was done with straight-chain alkan2-ones (with 3 to 16 carbon atoms) with known Log P values (measurement of Log P values using retention times with linear interpolation between successive alkanones). Lambda-max-values were determined using UV-spectra from 200 nm to 400 nm and the peak values of the chromatographic signals.

Uromyces appendiculatus = test: In vivo preventive test on Uromyces appendiculatus (bean rust); settings: 264 h, 500 ppm of active ingredient, preventive spray on young bean plants, evaluated 11 days after inoculation, read-out: efficacy
Description: (§1) Example D: In Vivo Preventive Test on Uromyces appendiculatus (Bean Rust) [table] The active ingredients are made soluble and homogenized in a mixture of Dimethyl sulfoxide/Acetone/Tween® 80 and then diluted in water to the desired concentration. The young plants of bean are treated by spraying the active ingredient prepared as described above. Control plants are treated only with an aqueous solution of Acetone/Dimethyl sulfoxide/Tween® 80. After 24 hours, the plants are contaminated by spraying the leaves with an aqueous suspension of Uromyces appendiculatus spores. The contaminated bean plants are incubated for 24 hours at 20° C. and at 100% relative humidity and then for 10 days at 20° C. and at 70-80% relative humidity. The test is evaluated 11 days after the inoculation. 0% means an efficacy which corresponds to that of the control plants while an efficacy of 100% means that no disease is observed.

Septoria tritici = test: In vivo preventive test on Septoria tritici (leaf spot on wheat); settings: Zymoseptoria tritici, 576 h; 500 ppm of active ingredient; preventive spray on young wheat plants; evaluated 24 days after inoculation; read-out: efficacy
Description: Example B: In Vivo Preventive Test on Septoria tritici (Leaf Spot on Wheat) [table] The active ingredients are made soluble and homogenized in a mixture of Dimethyl sulfoxide/Acetone/Tween® 80 and then diluted in water to the desired concentration. The young plants of wheat are treated by spraying the active ingredient prepared as described above. Control plants are treated only with an aqueous solution of Acetone/Dimethyl sulfoxide/Tween® 80. After 24 hours, the plants are contaminated by spraying the leaves with an aqueous suspension of Septoria tritici spores. The contaminated wheat plants are incubated for 72 hours at 18° C. and at 100% relative humidity and then for 21 days at 20° C. and at 90% relative humidity. The test is evaluated 24 days after the inoculation. 0% means an efficacy which corresponds to that of the control plants while an efficacy of 100% means that no disease is observed.

Puccinia recondita = test: In vivo preventive test on Puccinia recondita (brown rust on wheat); settings: 264 h, 500 ppm of active ingredient, preventive spray on young wheat plants, evaluated 11 days after inoculation, read-out: efficacy
Description: as §1, with “A:” for “D:”, “Puccinia recondita (Brown Rust on Wheat)” for “Uromyces appendiculatus (Bean Rust)”, “wheat” for “bean”, “Puccinia recondita” for “Uromyces appendiculatus”

[2] = system: Blumeria graminis fsp. hordei; test: In vivo preventive Blumeria test (barley); settings: 168 h, 500 ppm of active ingredient, preventive spray on young barley plants, evaluated 7 days after inoculation, read-out: efficacy
Description: Example F: In Vivo Preventive Blumeria Test (Barley) [table] To produce a suitable preparation of active compound, 1 part by weight of active compound or active compound combination is mixed with the stated amounts of solvent and emulsifier, and the concentrate is diluted with water to the desired concentration. To test for preventive activity, young plants are sprayed with the preparation of active compound or active compound combination at the stated rate of application. After the spray coating has been dried, the plants are dusted with spores of Blumeria graminis fsp. hordei. The plants are placed in the greenhouse at a temperature of approximately 18° C. and a relative atmospheric humidity of approximately 80% to promote the development of mildew pustules. The test is evaluated 7 days after the inoculation. 0% means an efficacy which corresponds to that of the untreated control, while an efficacy of 100% means that no disease is observed.

SMILES | chromatographic logP [1] | pest or weed control at 500 ppm (Sphaerotheca fuliginea) | pest or weed control at 500 ppm (Uromyces appendiculatus) | pest or weed control at 500 ppm (Septoria tritici) | pest or weed control at 500 ppm (Puccinia recondita) | pest or weed control at 500 ppm [2]
N#Cc1cncn1CC1(c2ccc(F)cc2)OC1c1ccc(Cl)cc1 (centres unmarked) [I-24] | 3.37 | 90 to 100% | 90 to 100% | 90 to 100% | 90 to 100% | 
N#Cc1cncn1CC1(c2ccc(F)cc2)OC1c1cccc(Cl)c1 (centres unmarked) [I-21] | 3.35 | 90 to 100% | 90 to 100% | 80 to 89% | 90 to 100% | 
N#Cc1cncn1CC1(c2ccc(F)cc2)OC1c1ccnc(Cl)c1 (centres unmarked) [I-20] | 2.5 | 90 to 100% | 90 to 100% | 90 to 100% | 90 to 100% | 
N#Cc1cncn1CC1(c2ccc(F)cc2Cl)OC1c1ccccc1Cl (centres unmarked) [I-29] | 3.71 | 90 to 100% | 90 to 100% | 90 to 100% | 90 to 100% | 90 to 100%
COc1ccc(C2(Cn3cncc3C#N)OC2c2ccccc2Cl)cn1 (centres unmarked) [I-19] | 2.86 | 90 to 100% | 80 to 89% | 90 to 100% | 90 to 100% | 
Fc1ccc(C2(Cn3cncc3F)OC2c2ccccc2Cl)cc1 (centres unmarked) [I-02] | 2.62 | 90 to 100% | 90 to 100% | 90 to 100% | 90 to 100% | 90 to 100%
Fc1ccc(C2(Cn3cncc3Cl)OC2c2ccccc2Cl)cc1 (centres unmarked) [I-01] | 3.19 | 90 to 100% | 90 to 100% | 90 to 100% | 90 to 100% | 90 to 100%

Continued, in another order:

chromatographic logP [1] | SMILES | pest or weed control at 500 ppm (Sphaerotheca fuliginea) | pest or weed control at 500 ppm (Uromyces appendiculatus) | pest or weed control at 500 ppm (Septoria tritici) | pest or weed control at 500 ppm (Puccinia recondita) | pest or weed control at 500 ppm [2]
3.85 | N#Cc1cncn1CC1(c2ccc(Br)cc2)OC1c1ccccc1Cl (centres unmarked) [I-08] | 90 to 100% | 90 to 100% | 90 to 100% |  | 
2.98 | N#Cc1cncn1C[C@]1(c2ccc(F)cc2)O[C@@H]1c1ccccc1Cl (relative stereo) [I-04, cis 3-[[3-(2-chlorophenyl)-2-(4-fluorophenyl)oxiran-2-yl]methyl]imidazole-4-carbonitrile] | 90 to 100% | 80 to 89% | 80 to 89% |  | 
3.83 | N#Cc1cncn1CC1(c2ccc(Cl)cc2)OC1c1ccccc1Br (centres unmarked) [I-11] |  | 90 to 100% | 90 to 100% | 90 to 100% | 80 to 89%
3.96 | N#Cc1cncn1CC1(c2ccc(C(F)(F)F)cc2)OC1c1ccccc1Cl (centres unmarked) [I-05] | 90 to 100% | 90 to 100% | 90 to 100% | 90 to 100% | 90 to 100%
3.26 | COc1ccc(C2(Cn3cncc3C#N)OC2c2ccccc2Cl)cc1 (centres unmarked) [I-22] | 90 to 100% | 90 to 100% | 90 to 100% | 90 to 100% | 
